# Read-outs that look alike come from different tables or passages of the source.
# How the values were obtained:
# [1] = Radiochemical purity / percent stability of aged radiopharmaceutical solutions by radio-analytical HPLC; settings: for % stability 3 hr: [F-18]HX4 16.2 mCi/mL; for RCP % 1.5 hrs post dispensing / RCP % 4 hrs post dispensing: FLT; for % stability 4.0 hr: [F-18]FLT 126.3 mCi/mL (text: 103 mCi/mL); for % stability 5.5 hr: [F-18]FLT 127 mCi/mL; for % stability 2.25 hr: [F-18]BMS 747158-02 12 mCi/mL, 10 vol. % EtOH:water
# [2] = Hydrogen peroxide concentration by peroxide test strips; type: physicochemical
# [3] = test system: proximal renal tubes in kidneys; settings: rat, in vivo
# [4] = test system: proximal renal tubes in kidneys; settings: dog, in vivo
# [5] = Excipient screen: protective factor (PF) for [F-18]FLT in argon sparged vials; settings: in the absence of oxygen, in the presence of argon
structure (smiles),measurement,setting,value
O=[N+]([O-])c1nccn1Cc1cn(C(CO)C[18F])nn1 (centres unmarked) [[F-18]HX4],% stability 3 hr,"[1]; 8 vol. % EtOH:phosphate (text: 10 vol. % EtOH:water), maleic acid + Argon",8.66%
same,% stability 3 hr,"[1]; 8 vol. % EtOH:phosphate (text: 10 vol. % EtOH:water), maleic acid + O2",98.9%
same,% stability 3 hr,"[1]; 8 vol. % EtOH:phosphate, Air (O2)",94.06%
same,% stability 3 hr,"[1]; 8 vol. % EtOH:phosphate, Argon",85.6%
same,radiochemical integrity,"[1]; [F-18]HX4 in 10 vol. % EtOH:water, headspace of oxygen, up to 4 hrs",remained radiochemically intact
same,radiochemical purity,"[1]; [F-18]HX4 in 10 vol. % EtOH:water, sparged with Ar, after 1 hrs",0.28%
same,radiochemical purity,"[1]; [F-18]HX4 in 10 vol. % EtOH:water, sparged with Ar, after 4.0 hrs",0%
Cc1cn([C@H]2C[C@H]([18F])[C@@H](CO)O2)c(=O)[nH]c1=O [[F-18]FLT],hydrogen peroxide concentration,"[2]; FLT sample 126.3 mCi/mL, containing maleic acid (argon)",0 ppm
same,hydrogen peroxide concentration,"[2]; FLT sample 126.3 mCi/mL, headspace of argon",0 ppm
same,hydrogen peroxide concentration,"[2]; FLT sample 127 mCi/mL, headspace of oxygen",5 ppm
same,hydrogen peroxide concentration,"[2]; FLT sample 127 mCi/mL, headspace of oxygen and maleic acid",0.5-2.0 ppm
same,stabilization by formulation,"[1]; 8 vol. % EtOH:92 vol. % sodium phosphate (21 mM, pH=4.0-7.0) containing 0.01% (g/ml) maleic acid",very efficient at stabilizing
same,RCP % 1.5 hrs post dispensing,[1]; Air-purged vial,100%
same,RCP % 4 hrs post dispensing,[1]; Air-purged vial,100%
same,RCP % 1.5 hrs post dispensing,[1]; Argon purged vial,62.5%
same,RCP % 4 hrs post dispensing,[1]; Argon purged vial,38.5%
same,oxygen in finished product vial headspace at which FLT stability is improved,[1]; Greer and Adelphi vials,> 10 vol. %
same,radiochemical purity,"[1]; [F-18]FLT 63.2 mCi/mL at EOS, dose vial sparged with Ar, after 1.5 hrs",62.5%
same,radiochemical purity,"[1]; [F-18]FLT 63.2 mCi/mL at EOS, dose vial sparged with Ar, after 4.0 hrs",38.57%
same,radiochemical integrity,"[1]; [F-18]FLT 63.2 mCi/mL at EOS, headspace of oxygen (syringe and sample vial), up to 4 hrs",remained radiochemically intact
same,% stability 2 hr,"[1]; [F-18]FLT 82 mCi/mL, 8 vol. % EtOH:phosphate, 0.01% (g/ml) maleic acid + Air headspace, rt",100%
same,% stability 3.25 hr,"[1]; [F-18]FLT 118.7 mCi/mL, 8 vol. % EtOH:phosphate, maleic acid + Ar headspace",37.9%
same,% stability 4.0 hr,"[1]; 8 vol. % EtOH:phosphate, Ar, no maleic acid",1.5%
same,% stability 4.0 hr,"[1]; 8 vol. % EtOH:phosphate, maleic acid (0.1 mg/mL) and Ar",88.7%
same,% stability 5.5 hr,"[1]; 8 vol. % EtOH:phosphate, syringe sample, O2 (no headspace), no maleic acid",19.68%
same,% stability 5.5 hr,"[1]; 8 vol. % EtOH:phosphate, syringe sample, maleic acid + O2 (no headspace)",97.13%
same,% stability 5.5 hr,"[1]; 8 vol. % EtOH:phosphate, vial, Air headspace, no maleic acid",≥ 98%
same,% stability 5.5 hr,"[1]; 8 vol. % EtOH:phosphate, vial, maleic acid + Air headspace (rt)",≥ 98%
same,radiochemical integrity,"[1]; [F-18]FLT 129.5 mCi/mL at EOS, control dose vial with headspace of oxygen",remained radiochemically intact
same,radiochemical integrity,"[1]; [F-18]FLT 129.5 mCi/mL at EOS, syringe with headspace of oxygen (20.95 vol. %)",remained radiochemically intact
same,radiochemical purity,"[1]; [F-18]FLT 129.5 mCi/mL at EOS, syringe without headspace of oxygen, after 2.6 hrs",66.7%
same,radiochemical purity,"[1]; [F-18]FLT 129.5 mCi/mL at EOS, syringe without headspace of oxygen, after 3.8 hrs",32.7%
same,% stability 3.5 hr,"[1]; [F-18]FLT 197.1 mCi/mL, 8 vol. % EtOH:phosphate, dose vial, air/O2 only",82.6%
same,stability (FIG. 2),[1]; in the presence of argon without maleic acid,decomposes
same,stability (FIG. 1),[1]; in the presence of argon without oxygen,decomposes
same,stability (FIG. 2),[1]; in the presence of maleic acid in argon,stabilized
same,stability (FIG. 1),[1]; in the presence of oxygen,stabilized
same,stability (FIG. 4),[1]; in the presence of oxygen and maleic acid,further stabilized
same,stability (FIG. 4),"[1]; in the presence of oxygen, once the oxygen is consumed",decomposes
same,period of stability,"[1]; oxygen and maleic acid formulation, in some instances",about 18 hours
same,strength up to which samples did not contain radiolyzed products,[1]; samples spiked with O2,up to 197 mCi/mL
O=C(O)/C=C\C(=O)O [Maleic acid],predicted human dose equivalent for renal effect,[3],approximately 12.3 mg/kg
same,"predicted human dose equivalent for renal effect, total dose",[3],855 mg
same,predicted human dose equivalent for renal effect,[4],approximately 15 mg/kg
same,"predicted human dose equivalent for renal effect, total dose",[4],1000 mg
same,stabilization of [F-18]FLT against radiolysis,[5],highly stabilizing
CC(C)[C@@H](C(=O)N[C@@H](Cc1ccc(OCC[18F])cc1)C(=O)O)n1cc(COc2ccc3nc(S(N)(=O)=O)sc3c2)nn1 [[F-18]VM4-037],radiolytic stability,[1]; oxygen introduced into the sample vials,not undergo radiolysis
same,radiolytic stability,[1]; stored under an atmosphere of He,susceptible to radiolytical decomposition
CC(C)(C)n1ncc(OCc2ccc(COCC[18F])cc2)c(Cl)c1=O [[F-18]BMS 747158-02],% stability 2.25 hr,[1]; Air/O2 (before sparge),91%
same,% stability 2.25 hr,[1]; Argon (reformulated after sparge),12%

# Source: patent publication US9539349B2, “Formulation, apparatus and method for stabilizing radiopharmaceuticals” (Siemens Medical Solutions USA, Inc., priority 2010, dated 2017)
